From patent publication US20240350471A1, “PHARMACEUTICAL COMPOSITION FOR PREVENTING OR TREATING ATTENTION DEFICIT/HYPERACTIVITY DISORDER” (DANKOOK UNIVERSITY CHEONAN CAMPUS INDUSTRY ACADEMIC …, priority 2021, published 2024)

Tested on: Git1 hetero type (+/−) mice
Experiment: Open field test in Git1 hetero type (+/−) ADHD model mice treated with SNAP5114
Assay type: in vivo
Conditions: SNAP5114 I.P. 50 ug/kg for 7 days prior to the experiment, movement measured for 10 minutes
Procedure: Git1 gene-deficient hetero (+/−) mice were prepared as an animal model with attention deficit/hyperactivity disorder (ADHD). Wild-type mice and GIT1 gene-deficient knock-out type (KO type) mice were crossed to obtain GIT1 gene-deficient hetero type. After making mating cages for among the obtained hetero type mice, genotyping was performed to isolate the hetero type mice. SNAP5114 was administered intraperitoneally (I.P.) at a concentration of 50 ug/kg for 7 days prior to the experiment. SNAP5114 was dissolved in 10% DMSO and then used by dissolving in 90% saline just before the experiment. Open field tests were performed to evaluate behavioral morphology and, in order to determine the characteristics of tonic GABA in the striatum, a representative brain region that controls hyperactivity, immunohistochemistry and electrophysiological measurements (patch clamp recording) were performed. Considering that changes in the amount of GABA associated with astrocytes in ADHD model mice are related to the transport protein that transports GABA into the astrocytes, behavioral experiments were conducted by treating the SNAP5114, an inhibitor of GABA transporter-3 (GAT-3). […] The mice were placed in the center of an open field test cage (30×30×30 cm), and its movement was measured for 10 minutes. The measured videos were analyzed for locomotor activity through ANYmaze.

COc1ccc(C(OCCN2CCC[C@H](C(=O)O)C2)(c2ccc(OC)cc2)c2ccc(OC)cc2)cc1 [SNAP5114, (S)-1-(2-(tris(4-methoxyphenyl)methoxy)ethyl)piperidine-3-carboxylic acid]
hyperactivity (distance of movement, locomotor activity) in open field test: hyperactivity was found to be ameliorated to the level of WT
